Source: patent US20230100838A1 (Revolution Medicines, Inc., priority 2019, published 2023)

Tests used:
Format in all cases: binding
[1] = target: T1, GDP-loaded K-Ras (1-169) G12D, C51S, C80L, C118S (Homo sapiens, UniProt P01116, C118S/C51S/C80L/G12D); assay: K-Ras G12D(GDP) cross-linking assay (conjugate formation, TOF mass spectrometry); design: key: 0: No observed x-linking; +: 0 < x ≤ 20; ++: 20 < x ≤ 40; +++: 40 < x ≤ 100; details: percent covalently modified K-Ras by MS, room temperature, typical compound conc. 2, 10, 25 μM, endpoints 1 and 24 h
T1 construct: GDP-loaded K-Ras (1-169) G12D, C51S, C80L, C118S
Procedure, shortened: (§1)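 5 μM protein (final, from 50 μM) in HEPES/NaCl/MgCl2 buffer pH 7.4 with compound typically at 2, 10 and 25 μM, room temperature, 1 and 24 h endpoints; formic acid quench. Intact-protein LC–TOF MS; percent modification is covalent adduct peak height over total K-Ras peak height.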

[2] = target: T2, GDP-loaded K-Ras (1-169) C51S, C80L, C118S (Homo sapiens, UniProt P01116, C118S/C51S/C80L); assay: K-Ras WT (GDP) cross-linking assay (conjugate formation, TOF mass spectrometry); design: key: 0: No observed x-linking; +: 0 < x ≤ 20; ++: 20 < x ≤ 40; +++: 40 < x ≤ 100; details: percent covalently modified K-Ras by MS, room temperature, typical compound conc. 2, 10, 25 μM, endpoints 1 and 24 h
T2 construct: GDP-loaded K-Ras (1-169) C51S, C80L, C118S
Procedure, shortened: as §1

[3] = target: K-Ras G12S (Homo sapiens, UniProt P01116, G12S); assay: K-Ras G12S cross-linking assay (comparable procedure, conjugate formation, TOF mass spectrometry); design: key: 0: No observed x-linking
Method: Protocol: K-Ras G12D(GDP) Cross-Linking Assay
Note: while the following protocol outlines the procedure for K-Ras G12D(GDP), a person of skill in the art may substitute other Ras proteins, and may also substitute a non-hydrolyzable GTP analog for GDP to study GTP bound Ras protein.
GDP-loaded K-Ras (1-169) G12D, C51S, C80L, C118S and GDP-loaded K-Ras (1-169) C51S, C80L, C118S were adjusted to 50 μM in K-Ras assay buffer (12.5 mM HEPES, 75 mM NaCl and 1 mM MgCl2 at pH 7.4). A 5 μL aliquot of each protein solution was added to each well of a 96-well microplate containing 40 μL of assay buffer. Initial compound stocks were prepared in DMSO at 100 times their final assay concentration. Compounds were then diluted 10-fold into K-Ras assay buffer to 10 times their final concentration. A 5 μL aliquot of each diluted compound solution was added to each protein solution in the 96-well microplate to initiate the reaction, which then proceeded at room temperature. Typical final compound concentrations were 2, 10, and 25 μM. At each time point, the reactions were analyzed immediately or quenched with 5 μL of a 5% formic acid solution and kept at 4° C. until analysis. Typical assay endpoints were 1 and 24 h.
Data collection took place on an Agilent 6230 TOF Mass Spectrometer. Complete reactions were injected onto a C4 reverse-phase column to separate protein from buffer components prior to entering the mass spectrometer. The proteins were eluted from the column by increasing acetonitrile fraction in the mobile phase and fed directly into the mass analyzer. Initial analysis of raw data took place in Agilent MassHunter BioConfirm software and consisted of deconvolution of multiple protein charge states with the maximum entropy algorithm, with a mass step of 1 Da. The heights of all deconvoluted protein masses were exported for further data analysis. The percent modification of each protein was then determined by calculating the peak height of the covalently modified K-Ras species as a percentage of the sum total of K-Ras protein peak height.

[4] = Table 4, percent covalently modified K-Ras by MS
[5] = Table 5, percent covalently modified K-Ras by MS

## COc1ccc(N=C=NC2CCN(c3ncnc4c(F)c(-c5ccccc5F)c(Cl)cc34)CC2)cc1 [Example 5, N-(1-(6-chloro-8-fluoro-7-(2-fluorophenyl)quinazolin-4-yl)piperidin-4-yl)-N-(4-methoxyphenyl)methanediimine]
[1]; Table 4
  G12D x-linking (%): 0
[2]; Table 4
  WT x-linking (%): 0
[3]; [4]
  G12S x-linking (%): 0

## Cc1cccc2cccc(N3CCc4c(nc(OC[C@@H]5CCCN5C)nc4N4CCN(C(=O)[C@@H]5CN5)[C@@H](CC#N)C4)C3)c12 [Example 64, 2-((S)-1-((S)-aziridine-2-carbonyl)-4-(7-(8-methylnaphthalen-1-yl)-2-(((S)-1-methylpyrrolidin-2-yl)methoxy)-5,6,7,8-tetrahydropyrido[3,4-d]pyrimidin-4-yl)piperazin-2-yl)acetonitrile]
[1]; Table 5
  G12D x-linking (%): + (0 < x ≤ 20)
[2]; Table 5
  WT x-linking (%): + (0 < x ≤ 20)
[3]; [5]
  G12S x-linking (%): + (0 < x ≤ 10)

## CN=C=NCCN(C)c1ncnc2c(F)c(-c3ccccc3F)c(Cl)cc12 [Example 9, 6-chloro-8-fluoro-7-(2-fluorophenyl)-N-methyl-N-(2-(((methylimino)methylene)amino)ethyl)quinazolin-4-amine]
[1]; Table 4
  G12D x-linking (%): + (0 < x ≤ 20)
[2]; Table 4
  WT x-linking (%): + (0 < x ≤ 20)
[3]; [4]
  G12S x-linking (%): + (0 < x ≤ 10)

## CN=C=NC1CCN(c2nc(OC[C@@H]3CCCN3C)nc3c2CCN(c2cccc4cccc(C)c24)C3)CC1 [Example 21, N-methyl-N-(1-(7-(8-methylnaphthalen-1-yl)-2-(((S)-1-methylpyrrolidin-2-yl)methoxy)-5,6,7,8-tetrahydropyrido[3,4-d]pyrimidin-4-yl)piperidin-4-yl)methanediimine]
[1]; Table 4
  G12D x-linking (%): +++ (40 < x ≤ 100)
[2]; Table 4
  WT x-linking (%): ++ (20 < x ≤ 100)
[3]; [4]
  G12S x-linking (%): ++ (10 < x ≤ 100)

## Cc1ccnc(C(C)C)c1-n1c(=O)nc(N2CCN(C(=O)[C@@H]3CN3)C[C@@H]2C)c2cc(F)c(-c3c(O)cccc3F)nc21 [Example 66, 4-((S)-4-((S)-aziridine-2-carbonyl)-2-methylpiperazin-1-yl)-6-fluoro-7-(2-fluoro-6-hydroxyphenyl)-1-(2-isopropyl-4-methylpyridin-3-yl)pyrido[2,3-d]pyrimidin-2(1H)-one]
[1]; Table 5
  G12D x-linking (%): + (0 < x ≤ 20)
[2]; Table 5
  WT x-linking (%): + (0 < x ≤ 20)
[3]; [5]
  G12S x-linking (%): + (0 < x ≤ 10)

## COCCN=C=N[C@H]1CC[C@H](N(C)c2nc(OC[C@@H]3CCCN3C)nc3c2CCN(c2cccc4cccc(C)c24)C3)CC1 [Example 78, N-((1r,4S)-4-((((2-methoxyethyl)imino)methylene)amino)cyclohexyl)-N-methyl-7-(8-methylnaphthalen-1-yl)-2-(((S)-1-methylpyrrolidin-2-yl)methoxy)-5,6,7,8-tetrahydropyrido[3,4-d]pyrimidin-4-amine]
[1]; Table 5
  G12D x-linking (%): ++ (20 < x ≤ 40)
[2]; Table 5
  WT x-linking (%): + (0 < x ≤ 20)
[3]; [5]
  G12S x-linking (%): + (0 < x ≤ 10)

## Cc1cccc2cccc(N3CCc4c(nc(OC[C@@H]5CCCN5C)nc4NCCNC4=NCCO4)C3)c12 [Example 40, (S)—N^1-(4,5-dihydrooxazol-2-yl)-N^2-(7-(8-methylnaphthalen-1-yl)-2-((1-methylpyrrolidin-2-yl)methoxy)-5,6,7,8-tetrahydropyrido[3,4-d]pyrimidin-4-yl)ethane-1,2-diamine]
[1]; Table 4
  G12D x-linking (%): + (0 < x ≤ 20)
[2]; Table 4
  WT x-linking (%): + (0 < x ≤ 20)
[3]; [4]
  G12S x-linking (%): + (0 < x ≤ 10)

## Cc1cccc2cccc(N3CCc4c(nc(OC[C@@H]5CCCN5C)nc4N4CCN(C(=O)C5CN5)CC4)C3)c12 (stereo partly drawn) [Example 46, aziridin-2-yl(4-(7-(8-methylnaphthalen-1-yl)-2-(((S)-1-methylpyrrolidin-2-yl)methoxy)-5,6,7,8-tetrahydropyrido[3,4-d]pyrimidin-4-yl)piperazin-1-yl)methanone]
[1]; Table 4
  G12D x-linking (%): + (0 < x ≤ 20)
[2]; Table 4
  WT x-linking (%): + (0 < x ≤ 20)
[3]; [4]
  G12S x-linking (%): + (0 < x ≤ 10)

## Fc1ccccc1-c1c(Cl)cc2c(NCCNC3=NCCO3)ncnc2c1F [Example 15, N-(6-chloro-8-fluoro-7-(2-fluorophenyl)quinazolin-4-yl)-N^2-(4,5-dihydrooxazol-2-yl)ethane-1,2-diamine]
[1]; Table 4
  G12D x-linking (%): + (0 < x ≤ 20)
[2]; Table 4
  WT x-linking (%): + (0 < x ≤ 20)
[3]; [4]
  G12S x-linking (%): + (0 < x ≤ 10)

## CN=C=NC1CCN(c2ncnc3c(F)c(-c4ccccc4F)c(Cl)cc23)CC1 [Example 4, N-(1-(6-chloro-8-fluoro-7-(2-fluorophenyl)quinazolin-4-yl)piperidin-4-yl)-N-methylmethanediimine]
[1]; Table 4
  G12D x-linking (%): + (0 < x ≤ 20)
[2]; Table 4
  WT x-linking (%): + (0 < x ≤ 20)
[3]; [4]
  G12S x-linking (%): ++ (10 < x ≤ 100)

## Cc1cccc2cccc(N3CCc4c(nc(OC[C@@H]5CCCN5C)nc4N4CCC(N=C=NCCCn5ccnc5)CC4)C3)c12 [Example 88, N-(3-(1H-imidazol-1-yl)propyl)-N-(1-(7-(8-methylnaphthalen-1-yl)-2-(((S)-1-methylpyrrolidin-2-yl)methoxy)-5,6,7,8-tetrahydropyrido[3,4-d]pyrimidin-4-yl)piperidin-4-yl)methanediimine]
[1]; Table 5
  G12D x-linking (%): +++ (40 < x ≤ 100)
[2]; Table 5
  WT x-linking (%): ++ (20 < x ≤ 100)
[3]; [5]
  G12S x-linking (%): ++ (10 < x ≤ 100)

## COCCN=C=NCC1CCN(c2nc(OC[C@@H]3CCCN3C)nc3c2CCN(c2cccc4cccc(C)c24)C3)CC1 [Example 77, N-(2-methoxyethyl)-N-((1-(7-(8-methylnaphthalen-1-yl)-2-(((S)-1-methylpyrrolidin-2-yl)methoxy)-5,6,7,8-tetrahydropyrido[3,4-d]pyrimidin-4-yl)piperidin-4-yl)methyl)methanediimine]
[1]; Table 5
  G12D x-linking (%): +++ (40 < x ≤ 100)
[2]; Table 5
  WT x-linking (%): ++ (20 < x ≤ 100)
[3]; [5]
  G12S x-linking (%): ++ (10 < x ≤ 100)

## CCCN=C=NC1CCN(c2nc(OC[C@@H]3CCCN3C)nc3c2CCN(c2cccc4cccc(C)c24)C3)CC1 [Example 22, N-(1-(7-(8-methylnaphthalen-1-yl)-2-(((S)-1-methylpyrrolidin-2-yl)methoxy)-5,6,7,8-tetrahydropyrido[3,4-d]pyrimidin-4-yl)piperidin-4-yl)-N-propylmethanediimine]
[1]; Table 4
  G12D x-linking (%): +++ (40 < x ≤ 100)
[2]; Table 4
  WT x-linking (%): ++ (20 < x ≤ 100)
[3]; [4]
  G12S x-linking (%): ++ (10 < x ≤ 100)

## O=C(C1CN1)N1CCN(c2ncnc3c(F)c(-c4ccccc4F)c(Cl)cc23)CC1 (stereo not drawn) [Example 16, aziridin-2-yl(4-(6-chloro-8-fluoro-7-(2-fluorophenyl)quinazolin-4-yl)piperazin-1-yl)methanone]
[1]; Table 4
  G12D x-linking (%): + (0 < x ≤ 20)
[2]; Table 4
  WT x-linking (%): + (0 < x ≤ 20)
[3]; [4]
  G12S x-linking (%): + (0 < x ≤ 10)

## O=C(NCCCl)NCCNc1ncnc2c(F)c(-c3ccccc3F)c(Cl)cc12 [Example 12, 1-(2-((6-chloro-8-fluoro-7-(2-fluorophenyl)quinazolin-4-yl)amino)ethyl)-3-(2-chloroethyl)urea]
[1]; Table 4
  G12D x-linking (%): 0
[2]; Table 4
  WT x-linking (%): 0
[3]; [4]
  G12S x-linking (%): 0

## Cc1ccnc(C(C)C)c1-n1c(=O)nc(N2CCC(CN=C=NCc3ccccc3)CC2)c2cc(F)c(-c3ccccc3F)nc21 [Example 69, 4-(4-((((benzylimino)methylene)amino)methyl)piperidin-1-yl)-6-fluoro-7-(2-fluorophenyl)-1-(2-isopropyl-4-methylpyridin-3-yl)pyrido[2,3-d]pyrimidin-2(1H)-one]
[1]; Table 5
  G12D x-linking (%): + (0 < x ≤ 20)
[2]; Table 5
  WT x-linking (%): + (0 < x ≤ 20)
[3]; [5]
  G12S x-linking (%): + (0 < x ≤ 10)
